This is an account of results in ChEMBL document CHEMBL1144802, “Cytotoxic xanthones from Psorospermum molluscum from the Madagascar rain forest” (J Nat Prod, 2008).

Molecules are shown by their SMILES.

For one experiment, the system named is A2780. The experiment can be described thus: Cytotoxicity against human A2780 cells. Format: functional, cell-based.
The subject of the next experiment is HCT-116. The experiment in a line: Cytotoxicity against human HCT116 cells. Format: functional, cell-based.
The next experiment concerns ABAE. The experiment can be described thus: Cytotoxicity against bovine ABAE cells. In kind it is functional, cell-based, Bos taurus.
In another experiment the test system is SK-BR-3. The experiment in a line: Cytotoxicity against human SKBR3 cells. In kind it is functional, cell-based.

By IC50 is commonly meant the point on the concentration scale where inhibition reaches its midpoint. A high value points to a need for much substance. In the case of `O=c1c2c(O)cccc2oc2ccc3c(c12)CC(C(O)(CO)CCl)O3` (configuration not stated) [PSOROXANTHIN CHLOROHYDRIN], the concentration for half-maximal inhibition (IC50) with A2780 was found to be 42 nM; in the experiment with HCT-116, 68 nM; with ABAE, 4 nM; with SK-BR-3 it was 2000 nM.
On to `O=c1c2c(O)cccc2oc2ccc3c(c12)CC(C1(CO)CO1)O3` (configuration not stated) [PSOROXANTHIN], for which the IC50 with A2780 came out at 330 nM; in the experiment with HCT-116 it was 1000 nM; with ABAE, 102 nM.
